Patent US20250382322A1, “DIAGNOSTICS FOR DETECTING ECTO-5'-NUCLEOTIDASE (CD73)” (EBERHARD KARLS UNIVERSITÄT TÜBINGEN, priority 2022, published 2025)

How the values were obtained:
Type in all cases: biochemical
Conditions in all cases: ATP (100 μM) as substrate
[1] = target: T1, human NTPDase3 (Homo sapiens, UniProt O75355); experiment: Capillary electrophoresis assay for human NTPDase3
T1 sequence (O75355 1-529): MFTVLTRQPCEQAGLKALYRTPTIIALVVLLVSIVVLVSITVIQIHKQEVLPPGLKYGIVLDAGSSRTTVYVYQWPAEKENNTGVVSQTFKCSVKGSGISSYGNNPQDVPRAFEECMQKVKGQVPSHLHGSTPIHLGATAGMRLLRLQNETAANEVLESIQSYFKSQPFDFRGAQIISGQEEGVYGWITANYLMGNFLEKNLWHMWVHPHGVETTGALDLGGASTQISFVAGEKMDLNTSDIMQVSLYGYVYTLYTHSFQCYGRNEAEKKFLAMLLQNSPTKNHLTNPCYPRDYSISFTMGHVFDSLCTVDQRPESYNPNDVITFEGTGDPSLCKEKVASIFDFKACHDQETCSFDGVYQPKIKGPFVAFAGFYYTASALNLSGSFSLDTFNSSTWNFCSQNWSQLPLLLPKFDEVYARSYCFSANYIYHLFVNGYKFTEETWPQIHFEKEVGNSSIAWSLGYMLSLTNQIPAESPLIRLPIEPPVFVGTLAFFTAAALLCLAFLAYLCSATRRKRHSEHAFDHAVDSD
Experimental: (§1) Inhibitory activity of the CD73 inhibitors 2 and 20 at human NTPDases 1, 2, 3, and 8 was investigated using ATP (100 μM) as a substrate according to previously published procedures.^24 ATP and 2 were co-incubated with recombinantly expressed human NTPDases at 37° C. for 30 min, and the enzymatic reaction was terminated by heating at 90° C. for 10 min. The amount of enzyme preparation was adjusted to ensure 10-20% of substrate conversion. The formed products were separated by capillary electrophoresis (CE) and individually quantitated by diode array detection (DAD) at a wavelength of 260 nm. For inhibition analysis, at least three independent experiments were performed each in triplicate. The inhibition of the enzyme activity was calculated in relation to the positive control without inhibitor and plotted by GraphPad Prism 8 software (GraphPad software, San Diego, CA, USA) (for results see Table 2 and Table 3).
(§2) Test compounds were investigated at a concentration of 50 μM, and 100 μM ATP substrate according to published procedures.^24 Recombinantly expressed human NTPDases were employed. The amount of enzyme preparation was adjusted to ensure 10-20% of substrate conversion. […] The inhibition of the enzyme activity was calculated in relation to the positive control without inhibitor and plotted in GraphPad Prism 8 software (GraphPad software, San Diego, CA, USA). […]

[2] = target: T2, human NTPDase1 (Homo sapiens, UniProt P49961); experiment: Capillary electrophoresis assay for human NTPDase1
T2 sequence (P49961 1-510): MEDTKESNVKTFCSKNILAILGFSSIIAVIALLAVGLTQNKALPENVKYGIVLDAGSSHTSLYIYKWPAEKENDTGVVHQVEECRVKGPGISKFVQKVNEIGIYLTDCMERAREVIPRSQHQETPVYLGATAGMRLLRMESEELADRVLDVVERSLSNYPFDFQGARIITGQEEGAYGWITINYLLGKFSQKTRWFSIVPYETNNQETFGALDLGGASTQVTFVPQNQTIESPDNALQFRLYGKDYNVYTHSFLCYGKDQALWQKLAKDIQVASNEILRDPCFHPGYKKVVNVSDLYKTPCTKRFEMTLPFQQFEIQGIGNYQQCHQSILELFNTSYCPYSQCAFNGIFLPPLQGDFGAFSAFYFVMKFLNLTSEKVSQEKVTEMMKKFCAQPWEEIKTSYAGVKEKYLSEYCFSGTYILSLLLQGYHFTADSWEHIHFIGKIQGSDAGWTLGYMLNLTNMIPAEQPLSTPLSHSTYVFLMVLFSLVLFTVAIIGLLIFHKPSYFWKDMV
Experimental: as §1, §2

[3] = target: T3, human NTPDase8 (Homo sapiens, UniProt Q5MY95); experiment: Capillary electrophoresis assay for human NTPDase8
T3 sequence (Q5MY95 1-495): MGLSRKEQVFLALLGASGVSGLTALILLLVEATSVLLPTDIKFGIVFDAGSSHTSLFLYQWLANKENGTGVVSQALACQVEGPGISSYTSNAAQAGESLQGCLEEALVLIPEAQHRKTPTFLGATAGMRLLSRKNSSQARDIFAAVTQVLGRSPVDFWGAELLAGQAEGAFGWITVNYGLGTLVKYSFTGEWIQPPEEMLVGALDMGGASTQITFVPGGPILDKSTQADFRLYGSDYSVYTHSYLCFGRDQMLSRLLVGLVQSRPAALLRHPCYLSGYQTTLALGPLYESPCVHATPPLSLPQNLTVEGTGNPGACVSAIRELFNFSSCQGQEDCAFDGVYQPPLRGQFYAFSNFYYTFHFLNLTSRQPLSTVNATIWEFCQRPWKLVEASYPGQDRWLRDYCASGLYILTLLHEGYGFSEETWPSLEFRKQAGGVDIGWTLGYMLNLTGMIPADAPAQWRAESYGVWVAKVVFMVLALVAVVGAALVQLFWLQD
Experimental: as §1, §2

Structure (SMILES) | IC50 [1] [µM] | IC50 [2] [µM] | IC50 [3] [µM]
CCCN(Cc1ccc(-c2cn(CCF)nn2)cc1)c1nc(Cl)nc2c1ncn2[C@@H]1O[C@H](COP(=O)(O)CP(=O)(O)O)C(O)C1O (stereo partly drawn) [Compound 2] | > 50 | > 50 | > 50
O=C(NCCCCCCNC(=O)c1ccc2c(c1)C1(OC2=O)c2ccc(O)cc2Oc2cc(O)ccc21)c1ccc(CNc2nc(Cl)nc3c2ncn3[C@@H]2O[C@H](COP(=O)(O)CP(=O)(O)O)[C@@H](O)[C@H]2O)cc1 [Compound 20, (((((2R,3S,4R,5R)-5-(2-chloro-6-((4-((6-(3′,6′-dihydroxy-3-oxo-3H-spiro[isobenzofuran-1,9′-xanthene]-6-carboxamido)-hexyl)carbamoyl)benzyl)amino)-9H-purin-9-yl)-3,4-dihydroxytetrahydrofuran-2-yl)methoxy)(hydroxy)phosphoryl)methyl)phosphonic acid] | 27.7 | 27.6 | < 50
